Test results from patent US10695406B2, “Modulation of cellular stress using a B-cell oxidative and/or endoplasmic reticulum stress inhibitor and a targeting agent” (THE UNIVERSITY OF QUEENSLAND, priority 2014, dated 2020).

Legend:
MIN6N8 murine β-cells = assay: ER stress (ERAI reporter of Xbp1-splicing / Xbp1 splicing) in MIN6N8 β-cells; format: cell-based; design: % Inhibition of ER Stress (Xbp1 splicing): concentration or dose not given beside the values; conditions: for induction of ER stress (ERAI reporter of Xbp1-splicing): 50 ng/mL cytokines, 24 hour
Description: MIN6N8 cells are maintained in line with standard protocols. Cells are transfected with either the ERAI reporter plasmid (F-XBP1ΔDBD-Venus), or the ATF6-GFP plasmid (ADGENE), using LIPFECTAMINE 2000 according to the manufacturer's instructions.
On induction of ER stress, splicing of […] mRNA by IRE1a results in the translation of Venus, but not an active form of XBP1. Fluorescence was measured (excitation: 485 nm; emission: 520 nm) using the POLARstar Omega plate reader and cells were treated 48 h after transfection. The results are normalized with Gapdh expression as fold of vehicle-treated control (Con) cells.
Activation of ATF6 was assessed as follows: the area in pixels per square millimeter co-stained ATF6 and DAPI (blue and green), and total ATF6 staining (green) was determined in 5 fields of view for each section (n=6 for each condition) using IMAGEJ software version 1.45s. Data are presented as the percentage of ATF6 and DAPI co-fluorescence to the total ATF6 fluorescence. Phosphorylation of Ser-51 of eiF2 α was determined by an AlphaScreen assay as per the manufacturer's instructions (PERKIN-ELMER). The Griess reagent method was performed according to the manufacturer's instructions (MOLECULAR PROBES) to assess the intracellular levels of nitric oxide. 5-(and -6-)-carboxy-2,7-dichlorofluorescein diacetate (DCFDA) assay was used to determine the intracellular levels of H2O2 as previously described (Sakon et al., 2003). Cells were treated with glucose or recombinant cytokines at the concentrations indicated in the figure legends, or with 5 μM thapsigargin (SIGMA-ALDRICH) or 10 μg/mL tunicamycin (SIGMA-ALDRICH) or 0.1-0.5 mM Palmitate (SIGMA-ALDRICH) for the times indicated in the legends. ROS was […] using the dihydroethidium (DHE) fluorescent cell-permeable probe (SIGMA-ALDRICH). MIN6N8 cells plated at 2×10^6/mL were incubated with 3 μM DHE and subsequently treated with DMSO (control), 50 ng/mL IL-23 for 30 minutes±[…] IL-22 at the same time or 30 minutes prior to IL-23.
To inhibit transcription factors the following specific inhibitors (and concentrations) were used:
MIN6N8 cells were exposed to a panel of cytokines to determine the effect of each cytokine on ER stress. ER stress was measured using the above-described method. Specifically, the cells were exposed to either a 24 hour treatment of any one of […] glucose (hi glucose), 10 μM H2O2, 0.5 mM palmitic acid or 50 ng/mL cytokines; or a 6 hour treatment with 10 μg/mL tunicamycin or 5 μM thapsigargin.
Experiments to assess ER and/or oxidative stress, and methods of qRT-PCT and/or quantifying gene expression were performed as described for Example 1. Xbp1 splicing is assessed by qRT-PCR, with normalization versus Gapdh, and expression presented as fold of vehicle-treated control cells.

Murine MIN6N8 cells = assay: ERAI-sXBP1 reporter ER stress in MIN6N8 cells with 0.5 mM palmitate; format: cell-based; conditions: 24 hours
Description: Cell culture: Murine MIN6N8 cells were tested negative for mycoplasma. Cells were routinely cultured in phenol-red free DMEM (Life Technologies) containing 25 mM glucose (3.4 g/L sodium bicarbonate, 50 U/mL penicillin and streptomycin, 71.5 μM β-mercaptoethanol and 10% heat inactivated fetal bovine serum) and transferred to DMEM as above with 5.5 mM glucose 48 h prior to experimentation. Human LS174T cells were cultured in DMEM containing 10% heat-inactivated fetal bovine serum, 50 U mL^−1 penicillin and streptomycin.
ER Stress Measurement: MIN6N8 cells were transfected with the ERAI reporter plasmid (F-XBP1ΔDBD-venus, using Lipofectamine 2000 according to the manufacturer's instructions. For ERAI there was negligible fluorescence in the absence of ER stressors, but upon induction of ER stress, splicing of XBP1 mRNA by IRE1a results in the translation of Venus but not an active form of XBP1. Fluorescence was measured (excitation: 485 nm; emission: 520 nm) using a POLARstar Omega plate reader and cells were treated 48 h after transfection. […] After 24 h, ERAI-sXBP1 GFP reporter fluorescence was measured.

STAT3 phosphorylation = assay: pStat3 staining in pancreatic islets vs liver, intestine and skin; format: in vivo, C57BL/6 mice; conditions: 30 min
Description: Targeting to IL-22 to pancreas: Non-obese male C57BL/6 at 6-8 weeks of age. Each IL-22-GLP-1R ligand fusion protein or hIL-22 was administered i.p. at 256 ng/g of IL-22 and the molar equivalents for the individual fusion proteins (n=3 per regimen). IL-22-ScaB1 was administered at […]. Control mice received a PBS control i.p. injection only.
To assess in vivo activation of the IL-22 receptor signaling pathway, after 30 min the mice were sacrificed and the following tissues were snap frozen and sections were prepared for each mouse: pancreas, skin (ear, tail), colon (rolled), and liver. Sections were stained by immunofluorescence for phosphorylated STAT3 using the Phospho-Stat3 (Tyr705) (D3A7) antibody.

Molecule: N[C@@H](CCC(=O)N[C@@H](CS)C(=O)NCC(=O)O)C(=O)O [GSH, reduced glutathione]
- % Inhibition of ER Stress (Xbp1 splicing) (MIN6N8 murine β-cells; ER stress induced by IFNγ): 15%
- % Inhibition of ER Stress (Xbp1 splicing) (MIN6N8 murine β-cells; ER stress induced by IL-1β): 16%
- % Inhibition of ER Stress (Xbp1 splicing) (MIN6N8 murine β-cells; ER stress induced by IL-17A): 0%
- % Inhibition of ER Stress (Xbp1 splicing) (MIN6N8 murine β-cells; ER stress induced by IL-23): 87%
- % Inhibition of ER Stress (Xbp1 splicing) (MIN6N8 murine β-cells; ER stress induced by IL-24): 6%
- % Inhibition of ER Stress (Xbp1 splicing) (MIN6N8 murine β-cells; ER stress induced by IL-33): 13%
- % Inhibition of ER Stress (Xbp1 splicing) (MIN6N8 murine β-cells; ER stress induced by MIP-2α): 7%

Molecule: CNC(=N)NCCC[C@H](N)C(=O)O [L-NMMA, N^G-Methyl-L-arginine]
- % Inhibition of ER Stress (Xbp1 splicing) (MIN6N8 murine β-cells; ER stress induced by IFNγ): 87%
- % Inhibition of ER Stress (Xbp1 splicing) (MIN6N8 murine β-cells; ER stress induced by IL-1β): 93%
- % Inhibition of ER Stress (Xbp1 splicing) (MIN6N8 murine β-cells; ER stress induced by IL-17A): 83%
- % Inhibition of ER Stress (Xbp1 splicing) (MIN6N8 murine β-cells; ER stress induced by IL-23): 78%
- % Inhibition of ER Stress (Xbp1 splicing) (MIN6N8 murine β-cells; ER stress induced by IL-24): 92%
- % Inhibition of ER Stress (Xbp1 splicing) (MIN6N8 murine β-cells; ER stress induced by IL-33): 90%
- % Inhibition of ER Stress (Xbp1 splicing) (MIN6N8 murine β-cells; ER stress induced by MIP-2α): 95%

Molecule: IL-1β: ER stress-inducing cytokine
- induction of ER stress (ERAI reporter of Xbp1-splicing) (MIN6N8 murine β-cells): lower stress response

Molecule: IL-17A: ER stress-inducing cytokine
- induction of ER stress (ERAI reporter of Xbp1-splicing) (MIN6N8 murine β-cells): lower stress response

Molecule: MIP-2α: ER stress-inducing chemokine
- induction of ER stress (ERAI reporter of Xbp1-splicing) (MIN6N8 murine β-cells): lower stress response

Molecule: superoxide dismutase [SOD1]
- % Inhibition of ER Stress (Xbp1 splicing) (MIN6N8 murine β-cells; ER stress induced by IFNγ): 74%
- % Inhibition of ER Stress (Xbp1 splicing) (MIN6N8 murine β-cells; ER stress induced by IL-1β): 96%
- % Inhibition of ER Stress (Xbp1 splicing) (MIN6N8 murine β-cells; ER stress induced by IL-17A): 65%
- % Inhibition of ER Stress (Xbp1 splicing) (MIN6N8 murine β-cells; ER stress induced by IL-23): 95%
- % Inhibition of ER Stress (Xbp1 splicing) (MIN6N8 murine β-cells; ER stress induced by IL-24): 59%
- % Inhibition of ER Stress (Xbp1 splicing) (MIN6N8 murine β-cells; ER stress induced by IL-33): 74%
- % Inhibition of ER Stress (Xbp1 splicing) (MIN6N8 murine β-cells; ER stress induced by MIP-2α): 88%

B1: IL-23: ER stress-inducing cytokine (protein, UniProt Q9NPF7 20-189; P29460 23-328, looked up)
Interleukin-23 subunit alpha: RAVPGGSSPAWTQCQQLSQKLCTLAWSAHPLVGHMDLREEGDEETTNDVPHIQCGDGCDPQGLRDNSQFCLQRIHQGLIFYEKLLGSDIFTGEPSLLPDSPVGQLHASLLGLSQLLQPEGHHWETQQIPSLSPSQPWQRLLLRFKILRSLQAFVAVAARVFAHGAATLSP
Interleukin-12 subunit beta: IWELKKDVYVVELDWYPDAPGEMVVLTCDTPEEDGITWTLDQSSEVLGSGKTLTIQVKEFGDAGQYTCHKGGEVLSHSLLLLHKKEDGIWSTDILKDQKEPKNKTFLRCEAKNYSGRFTCWWLTTISTDLTFSVKSSRGSSDPQGVTCGAATLSAERVRGDNKEYEYSVECQEDSACPAAEESLPIEVMVDAVHKLKYENYTSSFFIRDIIKPDPPKNLQLKPLKNSRQVEVSWEYPDTWSTPHSYFSLTFCVQVQGKSKREKKDRVFTDKTSATVICRKNASISVRAQDRYYSSSWSEWASVPCS
- induction of ER stress (ERAI reporter of Xbp1-splicing) (MIN6N8 murine β-cells): potent inducers of ER stress

B2: IFN-γ: ER stress-inducing cytokine (protein, UniProt P01579 24-161, looked up)
Interferon gamma: QDPYVKEAENLKKYFNAGHSDVADNGTLFLGILKNWKEESDRKIMQSQIVSFYFKLFKNFKDDQSIQKSVETIKEDMNVKFFNSNKKKRDDFEKLTNYSVTDLNVQRKAIHELIQVMAELSPAAKTGKRKRSQMLFRG
- induction of ER stress (ERAI reporter of Xbp1-splicing) (MIN6N8 murine β-cells): lower stress response

B3: IL-10: cytokine that inhibits ER stress (protein, UniProt P22301 19-178, looked up)
Interleukin-10: SPGQGTQSENSCTHFPGNLPNMLRDLRDAFSRVKTFFQMKDQLDNLLLKESLLEDFKGYLGCQALSEMIQFYLEEVMPQAENQDPDIKAHVNSLGENLKTLRLRLRRCHRFLPCENKSKAVEQVKNAFNKLQEKGIYKAMSEFDIFINYIEAYMTMKIRN
- inhibition of ER stress initiated by cytokines or tunicamycin (MIN6N8 murine β-cells; pair-wise combinations of cytokines): inhibit ER stress

B4: IL-22-ScaB1: IL-22-single chain antibody construct targeting a β-cell antigen; scFv-cytokine fusion protein with His- and myc-tag (protein)
chain: HHHHHHEVQLLESGGGLVQPGGSLRLSCAASGFTFSSYAMSWVRQAPGKGLEWVSSITAEGTHTWYADSVKGRFTISRDNSKNTLYLQMNSLRAEDTAVYYCAKTSYRFDYWGQGTLVTVSSGGGGSGGGGSGGGGSDIQMTQSPSSLSASVGDRVTITCRASQSISSYLNWYQQKPGKAPKLLIYKASRLQSGVPSRFSGSGSGTDFTLTISSLQPEDFATYYCQQKWDPPRTFGQGTKVEIKRSGGGGSAPISSHCRLDKSNFQQPYITNRTFMLAKEASLADNNTDVRLIGEKLFHGVSMSERCYLMKQVLNFTLEEVLFPQSDRFQPYMQEVVPFLARLSNRLSTCHIEGDDLHIQRNVQKLKDTVKKLGESGEIKAIGELDLLFMSLRNACIEQKLISEEDLN
modifications: His-ScaB1 scFv-IL22 human-myc
notes: IL-22-single chain antibody construct targeting a β-cell antigen; scFv-cytokine fusion protein with His- and myc-tag
- ER stress caused by the protein alone (Murine MIN6N8 cells; 15.4 nM, no palmitate): did not cause ER stress
- potency compared to the native human IL-22 in reducing ER stress (Murine MIN6N8 cells; 0.5 mM palmitate): < 50%
- protection from palmitate-induced ER stress (Murine MIN6N8 cells; co-treated with 0.5 mM palmitate, increasing concentrations): reduced ER stress induced by palmitate
- pStat3 ratio pancreatic islets vs liver, skin or intestine relative to human IL-22 (STAT3 phosphorylation; 0.96 nmoles/g): not greater than for native human IL-22
- pStat3 ratio pancreatic islets vs intestine, fold change relative to human IL-22 (STAT3 phosphorylation; 15.4 nmoles/g): 420 fold
- pStat3 ratio pancreatic islets vs liver, fold change relative to human IL-22 (STAT3 phosphorylation; 15.4 nmoles/g): 120 fold
- pStat3 ratio pancreatic islets vs skin, fold change relative to human IL-22 (STAT3 phosphorylation; 15.4 nmoles/g): 110 fold

B5: IL-24: ER stress-inducing cytokine (protein, UniProt Q13007 52-206, looked up)
Interleukin-24: QEFHFGPCQVKGVVPQKLWEAFWAVKDTMQAQDNITSARLLQQEVLQNVSDAESCYLVHTLLEFYLKTVFKNYHNRTVEVRTLKSFSTLANNFVLIVSQLQPSQENEMFSIRDSAHRRFLLFRRAFKQLDVEAALTKALGEVDILLTWMQKFYKL
- induction of ER stress (ERAI reporter of Xbp1-splicing) (MIN6N8 murine β-cells): potent inducers of ER stress

B6: IL-33: ER stress-inducing cytokine (protein, UniProt O95760 1-270, looked up)
Interleukin-33: MKPKMKYSTNKISTAKWKNTASKALCFKLGKSQQKAKEVCPMYFMKLRSGLMIKKEACYFRRETTKRPSLKTGRKHKRHLVLAACQQQSTVECFAFGISGVQKYTRALHDSSITGISPITEYLASLSTYNDQSITFALEDESYEIYVEDLKKDEKKDKVLLSYYESQHPSNESGDGVDGKMLMVTLSPTKDFWLHANNKEHSVELHKCEKPLPDQAFFVLHNMHSNCVSFECKTDPGVFIGVKDNHLALIKVDSSENLCTENILFKLSET
- induction of ER stress (ERAI reporter of Xbp1-splicing) (MIN6N8 murine β-cells): potent inducers of ER stress
